# Experimental data: ChEMBL document CHEMBL1201862, “PubChem BioAssay data set” (2004)
# Calls of active or inactive are those of the source.
# What was measured:
# Vero = assay: cells; assay type: functional; conditions: Chlorocebus sabaeus
# cells [1] = assay type: functional, cell-based
# cells [2] = assay type: functional, cell-based; remark: listed apart in the source
# Cytochrome P450 2D6 = Cytochrome P450 2D6 (Homo sapiens, UniProt P10635);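 note: CYP2D6 member of a cytochrome P450 panel assay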
# Cytochrome P450 2D6, sequence (P10635 whole entry): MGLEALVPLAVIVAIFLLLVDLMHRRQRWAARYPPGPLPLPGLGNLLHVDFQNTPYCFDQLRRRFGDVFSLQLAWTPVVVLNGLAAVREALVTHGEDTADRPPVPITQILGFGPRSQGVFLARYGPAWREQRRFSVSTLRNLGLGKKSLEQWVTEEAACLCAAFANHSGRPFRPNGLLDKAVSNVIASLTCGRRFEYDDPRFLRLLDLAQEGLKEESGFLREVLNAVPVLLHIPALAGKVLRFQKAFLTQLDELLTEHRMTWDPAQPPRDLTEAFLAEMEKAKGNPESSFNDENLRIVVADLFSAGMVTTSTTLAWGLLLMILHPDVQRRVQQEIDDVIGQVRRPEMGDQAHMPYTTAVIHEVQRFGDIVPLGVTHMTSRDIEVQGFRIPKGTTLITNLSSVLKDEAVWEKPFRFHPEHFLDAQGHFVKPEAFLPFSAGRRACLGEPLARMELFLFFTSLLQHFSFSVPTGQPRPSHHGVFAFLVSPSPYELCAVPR
# [3] = molecular target: T1, Heat shock factor protein 1 (Mus musculus, UniProt P38532); assay: enhancement of HSF1-driven luciferase signal – cell-based, NIH3T3, luminescence, dose retest, confirmation (AID 435004); assay type: functional;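 note: stress induced by proteasome inhibitor MG132 added 30 min after compound; luciferase reporter driven by HSF1 response element in NIH3T3 cells; actives raise luminescence as potentiators of the MG132 stress response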
# T1 sequence (P38532 whole entry): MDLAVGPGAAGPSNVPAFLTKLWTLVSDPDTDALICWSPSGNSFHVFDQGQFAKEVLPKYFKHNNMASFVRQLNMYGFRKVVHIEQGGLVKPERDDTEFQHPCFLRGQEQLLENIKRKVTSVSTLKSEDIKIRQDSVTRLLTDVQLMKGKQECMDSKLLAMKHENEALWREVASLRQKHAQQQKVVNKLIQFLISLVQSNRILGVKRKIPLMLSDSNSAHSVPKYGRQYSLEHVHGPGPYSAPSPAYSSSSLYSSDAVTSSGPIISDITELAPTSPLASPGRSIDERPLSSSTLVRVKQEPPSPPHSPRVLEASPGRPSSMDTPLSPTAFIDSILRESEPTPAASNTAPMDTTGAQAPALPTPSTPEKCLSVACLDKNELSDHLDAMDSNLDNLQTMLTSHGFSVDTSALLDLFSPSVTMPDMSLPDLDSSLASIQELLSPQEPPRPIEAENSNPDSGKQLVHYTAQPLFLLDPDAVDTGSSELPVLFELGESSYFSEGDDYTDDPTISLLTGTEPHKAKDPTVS
# [4] = viability of uninfected HEp-2 cells – cell-based, HTS, cytotoxicity control for RSV inhibitor project, dose response (AID 2410); assay type: functional; conditions: human respiratory syncytial virus
# [5] = molecular target: T2, Ubiquitin-conjugating enzyme E2 N (Homo sapiens, UniProt P61088); assay type: functional;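 note: Dose-response confirmation in a TR-FRET assay detecting UBC13-driven polyubiquitin chain formation, inhibition measured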
# T2 sequence (P61088 whole entry): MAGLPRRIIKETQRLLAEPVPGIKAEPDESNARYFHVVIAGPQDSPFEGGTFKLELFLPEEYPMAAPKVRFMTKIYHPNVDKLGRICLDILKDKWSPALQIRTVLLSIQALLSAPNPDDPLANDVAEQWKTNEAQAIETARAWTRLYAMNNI
# [6] = Luminescence Cell-Based Dose Confirmation HTS to Identify Activators of 5'UTR Stem-Loop Driven Alpha-Synuclein mRNA Translation in H4 Neuroglioblastoma Cells. [Related pubchem assays: 1829 (Project Summary), 1814 (Primary HTS)]; assay type: functional
# [7] = Luminescence Cell-Based Dose Response HTS to Identify Activators of Luciferase Translation or Activity in H4 […] Cells. [Related pubchem assays: 1829 (Project Summary), 1814 (Primary HTS)]; assay type: functional
# H4 = assay: Luminescence Cell-Based Dose Response HTS to Identify Activators of 5'UTR Stem-Loop Driven Prion Protein mRNA Translation in H4 Neuroglioblastoma Cells. [Related pubchem assays: 1829 (Project Summary), 1814 (Primary HTS)]; assay type: functional; conditions: Homo sapiens
# Protein skinhead-1 = molecular target: T3, Protein skinhead-1 (Caenorhabditis elegans, UniProt P34707); assay type: functional
# T3 sequence (P34707 whole entry): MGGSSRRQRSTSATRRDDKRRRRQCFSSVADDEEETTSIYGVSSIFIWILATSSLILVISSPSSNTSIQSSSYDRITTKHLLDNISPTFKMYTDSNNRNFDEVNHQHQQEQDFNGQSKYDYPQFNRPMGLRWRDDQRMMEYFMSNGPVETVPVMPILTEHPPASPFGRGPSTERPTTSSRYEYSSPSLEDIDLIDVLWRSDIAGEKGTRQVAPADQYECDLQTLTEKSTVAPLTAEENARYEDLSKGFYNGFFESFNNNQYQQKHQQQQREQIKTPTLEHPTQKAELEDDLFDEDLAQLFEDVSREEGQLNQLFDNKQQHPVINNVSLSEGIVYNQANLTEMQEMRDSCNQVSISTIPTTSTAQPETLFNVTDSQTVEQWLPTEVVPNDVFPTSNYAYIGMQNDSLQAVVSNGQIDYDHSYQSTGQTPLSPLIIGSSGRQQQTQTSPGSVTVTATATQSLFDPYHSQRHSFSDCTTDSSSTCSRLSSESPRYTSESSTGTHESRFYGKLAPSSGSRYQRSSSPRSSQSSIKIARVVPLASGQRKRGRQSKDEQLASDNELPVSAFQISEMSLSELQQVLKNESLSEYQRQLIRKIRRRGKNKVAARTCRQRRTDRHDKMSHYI
# Cytochrome P450 3A4 = Cytochrome P450 3A4 (Homo sapiens, UniProt P08684);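 note: CYP3A4 tested as one member of a cytochrome P450 panel screen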
# Cytochrome P450 3A4, sequence (P08684 whole entry): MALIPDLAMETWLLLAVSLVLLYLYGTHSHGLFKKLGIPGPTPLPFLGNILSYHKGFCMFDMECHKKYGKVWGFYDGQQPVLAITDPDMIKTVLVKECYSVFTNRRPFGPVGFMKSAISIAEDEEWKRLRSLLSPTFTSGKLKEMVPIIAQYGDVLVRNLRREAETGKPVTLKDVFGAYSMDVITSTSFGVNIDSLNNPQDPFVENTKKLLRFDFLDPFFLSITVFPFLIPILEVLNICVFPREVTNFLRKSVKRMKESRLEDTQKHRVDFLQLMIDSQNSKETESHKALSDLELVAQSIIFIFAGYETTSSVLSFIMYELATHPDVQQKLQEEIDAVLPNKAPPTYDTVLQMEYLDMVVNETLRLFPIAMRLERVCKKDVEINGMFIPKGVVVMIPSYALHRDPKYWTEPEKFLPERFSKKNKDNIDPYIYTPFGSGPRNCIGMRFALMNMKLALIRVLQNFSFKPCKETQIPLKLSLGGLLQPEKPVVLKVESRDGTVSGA
# Cytochrome P450 2C19 = Cytochrome P450 2C19 (Homo sapiens, UniProt P33261); assay: Cytochrome panel assay with activity outcomes. Panel member name: p450-cyp2c19 Compounds with AC50 equal or less than 10 uM are considered active; assay type: functional
# Cytochrome P450 2C19, sequence (P33261 whole entry): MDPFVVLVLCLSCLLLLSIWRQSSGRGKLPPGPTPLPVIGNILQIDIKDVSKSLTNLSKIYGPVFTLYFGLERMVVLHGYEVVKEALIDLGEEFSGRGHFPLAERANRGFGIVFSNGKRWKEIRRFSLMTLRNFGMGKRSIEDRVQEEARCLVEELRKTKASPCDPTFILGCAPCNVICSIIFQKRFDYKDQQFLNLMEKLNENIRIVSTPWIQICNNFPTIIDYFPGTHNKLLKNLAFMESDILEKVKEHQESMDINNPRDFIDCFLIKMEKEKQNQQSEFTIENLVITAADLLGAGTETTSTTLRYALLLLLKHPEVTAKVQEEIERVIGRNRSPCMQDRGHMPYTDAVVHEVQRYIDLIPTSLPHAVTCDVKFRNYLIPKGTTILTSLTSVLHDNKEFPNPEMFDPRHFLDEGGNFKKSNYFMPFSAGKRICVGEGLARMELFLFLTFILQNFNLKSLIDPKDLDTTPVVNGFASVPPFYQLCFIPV
# [8] = tested on: Streptococcus sp. 'group A'; assay: Streptococcus pyogenes SK(-)GAS viability under kanamycin – luminescence, BacTiterGlo, confirmation, counter-screen for streptokinase expression inhibitor project, dose response (AID 1900); assay type: functional, organism-based
# Streptokinase A = molecular target: T4, Streptokinase A (Streptococcus pyogenes serotype M1, UniProt P10520); assay: viability-normalized secreted streptokinase activity reduction – plasminogen activation absorbance, OD405, dose response (AID 1914); assay type: functional, Streptococcus pyogenes M1 GAS;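 note: secreted streptokinase activity via plasminogen activation per viability signal from cell pellet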
# T4 sequence (P10520 whole entry): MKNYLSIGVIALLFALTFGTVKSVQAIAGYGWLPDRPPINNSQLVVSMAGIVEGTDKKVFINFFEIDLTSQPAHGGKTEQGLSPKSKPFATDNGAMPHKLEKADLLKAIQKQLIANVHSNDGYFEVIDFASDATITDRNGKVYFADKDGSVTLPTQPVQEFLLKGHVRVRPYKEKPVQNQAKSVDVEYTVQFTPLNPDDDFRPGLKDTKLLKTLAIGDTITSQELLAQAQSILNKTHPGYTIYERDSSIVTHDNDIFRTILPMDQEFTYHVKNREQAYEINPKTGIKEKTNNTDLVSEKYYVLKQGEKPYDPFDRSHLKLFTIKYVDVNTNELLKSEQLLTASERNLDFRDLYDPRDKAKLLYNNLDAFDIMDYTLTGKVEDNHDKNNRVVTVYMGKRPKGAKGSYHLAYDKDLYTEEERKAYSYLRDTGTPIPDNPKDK
# Streptococcus = assay: GAS UMAA2166 growth inhibition – luminescence, BacTiterGlo, counter-screen for streptokinase expression inhibitor project, dose response (AID 1915); assay type: functional, organism-based;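 note: potency for reduction of bacterial viability or growth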
structure (smiles),measurement,setting,value
CN(C)CCCN(C(=O)c1ccco1)c1nc2ccc(Cl)cc2s1,CC50,Vero,> 25 µM (active)
COc1nccc(C(F)(F)F)c1C(=O)NC(=O)Nc1ccccc1,EC50,cells [1],> 350 µM (not active)
same,EC50,cells [2],> 350 µM (not active)
O=c1c2ccccc2nnn1CSc1ccc2c(c1)OCCO2,AC50,Cytochrome P450 2D6,28.2 µM (inconclusive)
Cc1ccc(Cc2cnc(NC(=O)c3cccs3)s2)cc1,AC50,Cytochrome P450 2D6,15.8 µM (inconclusive)
CCOC(=O)c1c(C)sc2c1N(C(=O)CN(CC)CC)c1ccccc1S2,EC50,[3],> 260 µM (inactive)
Cc1cc(C)cc(Oc2ccccc2/C=C\C(=O)O)c1,EC50,[3],> 260 µM (inactive)
O=C(Nc1ccc2c(c1)CCCN2C(=O)c1ccccc1)c1ccccc1Br,CC50,[4],10.5 µM (active)
same,CC50,Vero,> 25 µM (active)
Cc1cccc(N(C(=O)c2snc(C(N)=O)c2N)C(C(=O)NC2CCCC2)c2ccc(C)o2)c1 (centres undefined),IC50,[5],> 20 µM (inactive)
COc1cccc(Cn2c(=O)cnc3cnc(OCc4ccccc4)nc32)c1,AC50,Cytochrome P450 2D6,39.8 µM (inconclusive)
CC(=O)N1c2ccc(S(=O)(=O)NCCc3ccccc3)cc2CC1C (centres undefined),EC50,cells [1],> 350 µM (not active)
same,EC50,cells [2],> 350 µM (not active)
Cc1ccc(C(=O)Nc2nnc(C3CCCCC3)s2)o1,EC50,[3],44.6 µM (active)
N#C/C(C[n+]1cn(NC(=O)Nc2ccccc2)cn1)=N/O,EC50,[3],> 260 µM (inactive)
C=CCOC(=O)/C(=C\c1cccc2ccccc12)NC(=O)c1ccccc1,AC50,Cytochrome P450 2D6,22.4 µM (inconclusive)
CC1=NCCc2c1[nH]c1cc(O)ccc21,AC50,Cytochrome P450 2D6,7.94 µM (inconclusive)
CCN1CCN(S(=O)(=O)c2ccc(Cl)nc2)CC1,AC50,Cytochrome P450 2D6,12.6 µM (inconclusive)
CSc1nc(C)cc(Nc2ccc(O)c(CN3CCCCC3)c2)n1,AC50,Cytochrome P450 2D6,3.16 µM (inconclusive)
Cc1cc(C=O)c(C)n1-c1ccc(NC2CCCC2)c([N+](=O)[O-])c1,AC50,Cytochrome P450 2D6,8.91 µM (inconclusive)
N#Cc1sc2nc(N3CCCCC3)c3c(c2c1N)CCCC3,CC50,Vero,> 25 µM (active)
Cc1nnc(SCc2cccc(Cl)c2)n(N)c1=O,EC50,cells [1],> 350 µM (not active)
same,EC50,cells [2],> 350 µM (not active)
CSc1nccc(Nc2ccccc2)c1C#N,IC50,[5],> 20 µM (inactive)
CC(C)c1ccc2oc(=O)cc(CN3CCOCC3)c2c1,EC50,cells [1],> 350 µM (not active)
same,EC50,cells [2],> 350 µM (not active)
COc1ccc(Cl)cc1C=CC=NNS(=O)(=O)c1ccc(C)cc1,CC50,Vero,> 25 µM (active)
COc1ccccc1CCNS(=O)(=O)c1cc2c3c(c1)C(C)C(=O)N3CCC2 (centres undefined),EC50,cells [1],> 350 µM (not active)
same,EC50,cells [2],> 350 µM (not active)
Cc1ccccc1-n1c(=O)n(Cc2ccc(C(=O)O)cc2)c(=O)c2[nH]cnc21,EC50,cells [1],> 350 µM (not active)
same,EC50,cells [2],> 350 µM (not active)
CCNc1nc(Cl)nc(NNC(=O)C(C)Oc2ccccc2)n1 (centres undefined),EC50,cells [1],> 350 µM (not active)
same,EC50,cells [2],47 µM (active)
O=[N+]([O-])c1cccc(-c2ccc3nnc(SCc4ccccn4)n3n2)c1,EC50,[3],> 260 µM (inactive)
CCOc1ccc2c(=O)c(Oc3ccccc3OCC)coc2c1,EC50,[6],7.35 µM (active)
same,EC50,[7],7.99 µM (active)
same,EC50,H4,19.3 µM (active)
same,IC50,Protein skinhead-1,> 100 µM (inactive)
CC1=CC(=O)C=C(C)C1=NOC(=O)/C=C\c1ccccc1,EC50,[3],> 260 µM (inactive)
Cc1cnc(CNc2nc(-c3ccccc3Cl)nc3ccccc23)cn1,AC50,Cytochrome P450 2D6,25.1 µM (inconclusive)
same,AC50,Cytochrome P450 3A4,7.94 µM (inconclusive)
c1ccc(Nc2ncncc2-c2ccoc2)cc1,AC50,Cytochrome P450 2C19; read-out: AC50,15.8 µM (inconclusive)
same,AC50,Cytochrome P450 2D6,25.1 µM (inconclusive)
Cn1c(Cn2nnc3ccccc32)nnc1SCC(=O)c1ccccc1F,EC50,[3],> 260 µM (inactive)
CSc1ccccc1-n1nnnc1SCC(=O)NCc1cccs1,EC50,[3],> 260 µM (inactive)
Cc1cccc(C(=O)O/N=C(\N)c2ccc(Cl)cc2)c1,EC50,cells [1],> 350 µM (not active)
same,EC50,cells [2],16.7 µM (active)
COc1cc(NC(=O)C2=C(N3CCOCC3)/C(=C\c3ccc(Br)cc3)CC2)cc(OC)c1OC,EC50,[3],> 260 µM (inactive)
Cc1ccc(S(=O)(=O)N[C@H]2COC(=O)C/C=C\[C@@H](C)[C@H](NS(=O)(=O)c3ccc(C)cc3)COC(=O)[C@H](C)NC(=O)C/C=C\[C@H]2C)cc1,AC50,Cytochrome P450 2C19,inconclusive
same,AC50,Cytochrome P450 2D6,3.98 µM (inconclusive)
Cc1cc(NC(=O)c2ccccc2)n(-c2nc3ccccc3[nH]2)n1,EC50,cells [1],> 350 µM (not active)
same,EC50,cells [2],63.9 µM (active)
Cc1cccn2c(=O)c3cc(C(=O)NC4CCCC4)c(=N)n(Cc4ccc(F)cc4)c3nc12,CC50,Vero,> 25 µM (active)
CCOC(=O)N1CCN(C(=O)c2ccc3c(c2)N(Cc2ccccc2)CCS3)CC1,IC50,[5],> 20 µM (inactive)
CC(C)(C)c1ccc(C(=O)N/N=C/c2ccccn2)cc1,EC50,[8],9.57 µM (active)
same,EC50,Streptokinase A,> 150 µM (not active)
same,EC50,Streptococcus,29.8 µM (active)
same,IC50,[5],> 20 µM (inactive)
COCCCN(CC(=O)O)S(=O)(=O)c1cccc(Cl)c1,EC50,[3],> 260 µM (inactive)
COC(=O)c1sc(N)c(C(=O)OC)c1CSc1nc2sc3c(c2c(=O)n1C)CCC3,EC50,[3],> 260 µM (inactive)
Cc1ccc(Nc2nc(CSc3nnc(-c4ccncc4)n3C)cs2)cc1,EC50,cells [1],> 350 µM (not active)
same,EC50,cells [2],> 350 µM (not active)
COc1cc(OCc2ccccc2)c(C(=O)/C=C/c2ccc3c(c2)OCO3)c(OC)c1OC,CC50,Vero,> 25 µM (active)
C=CCN(C(=O)CCC(=O)Nc1cc(C)on1)C(C(=O)NC(C)(C)C)c1cccc(OC)c1OC (centres undefined),EC50,[3],> 260 µM (inactive)
